Results from PubChem BioAssay (NCI).
“And” between values parts separate entries of the source, which are not always exact repeats. Identical values can stand only once.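 These data come from cells grown in 96-well plates and exposed to compound for 48 hours at five concentrations. GI50 is the concentration that inhibits growth by half. TGI: concentration producing complete growth inhibition.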

Tests used:
Assay in all cases: growth of human tumour cells (NCI), 48 h
[1] = system: 786-0 renal
[2] = system: CCRF-CEM leukemia
[3] = system: EKVX NSCLC
[4] = system: HCT-116 colon
[5] = system: KM12 colon
[6] = system: MDA-N
[7] = system: NCI-H23 lung
[8] = system: OVCAR-5 ovarian
[9] = system: RXF 393 renal
[10] = system: SNB-19 CNS
[11] = system: SNB-75 CNS

| SMILES | TGI [1] | TGI [2] [µM] | TGI [3] | TGI [4] | TGI [5] | TGI [6] | TGI [7] | TGI [8] [µM] | TGI [9] | TGI [10] [µM] | TGI [11] | GI50 [2] | GI50 [3] | GI50 [4] | GI50 [6] | GI50 [8] | GI50 [10] | GI50 [11] [µM] | GI50 [5] |
| --- | --- | --- | --- | --- | --- | --- | --- | --- | --- | --- | --- | --- | --- | --- | --- | --- | --- | --- | --- |
| O=C1CSC2(CC(/C=C/c3ccccc3[N+](=O)[O-])=NN2c2cccc(S(=O)(=O)O)c2)N1c1nc2ccccc2s1 (centres undefined) | 22.5 µM | 43.5 | > 75 µM | > 75 µM | 27 µM | 50.6 µM | 34.4 µM | 39.9 | > 75 µM | 35.1 | 28.8 µM |  |  |  |  |  |  |  |  |
| CCN(CC)CCCNc1c2cc(OC)ccc2nc2cccc([N+](=O)[O-])c12 | 0.464 µM | 0.582 | 0.446 µM | 0.175 µM | 0.347 µM | 0.277 µM | 0.344 µM | 0.432 | 0.23 µM | 2.02 | 0.354 µM |  |  |  |  |  |  |  |  |
| Cc1nc2ccccc2n1Cc1ccc(NC(=S)NC2CCCCC2)cc1 | > 100 µM | > 100 | > 92.9 µM | > 100 µM | > 100 µM | > 100 µM | > 100 µM | > 100 | > 100 µM | > 100 | > 84.7 µM |  |  |  |  |  |  |  |  |
| NCCCCNCCCNC(=O)c1csc(-c2nc(CCN)sc2Cl)n1 | > 100 µM | > 100 | > 100 µM | > 100 µM | > 100 µM | > 100 µM | > 100 µM | > 100 | > 100 µM | > 100 | > 100 µM |  |  |  |  |  |  |  |  |
| CC(=O)Nc1ccc2cc3c(nc2n1)c1cccnc1n3S(=O)(=O)c1ccccc1 | > 100 µM | > 100 | > 100 µM | > 100 µM | > 100 µM | > 100 µM | > 100 µM | > 100 | > 100 µM | > 100 | > 100 µM |  |  |  |  |  |  |  |  |
| COC(=O)/C=C/c1cc(OC)c2c(c1)C(C(=O)OC)C(c1ccc(O)c(OC)c1)O2 (centres undefined) | > 100 µM and > 49.7 µM and 36.3 µM |  | > 100 µM and 57.6 µM | > 100 µM and > 46.7 µM and 19.7 µM | > 88.2 µM and 20.9 µM and 15.7 µM | 29.1 µM | > 100 µM and 13 µM and 56.5 µM | > 100 | 9.76 µM and 7.8 µM and > 43.6 µM | > 100 | 4.36 µM and 6.67 µM and 15.2 µM | 3.4 µM and 3.35 µM and 0.699 µM | > 29.4 µM and 18.5 µM and 3.45 µM | 4.22 µM and 3.67 µM and 1.1 µM | 0.204 µM | 48.8 µM and 55.2 µM and 22.3 µM | 4.15 µM and 4.27 µM and 9.01 µM | 0.91 |  |
| ClC1(Cl)C2CCOC21n1cnc2ccccc21 (centres undefined) | > 100 µM | > 100 | > 100 µM | > 100 µM | > 100 µM | > 100 µM | > 100 µM | > 100 | > 100 µM | > 100 | > 100 µM |  |  |  |  |  |  |  |  |
| CCOc1ccnc2c(OC)c(C)c3nc4ccccc4nc3c12 | > 100 µM | > 100 | > 100 µM | > 100 µM | > 100 µM | > 100 µM | > 100 µM | > 100 | > 100 µM | > 100 | > 100 µM |  |  |  |  |  |  |  |  |
| O=C(CCCN1CCC(Nc2ccc(F)cc2)(c2nnnn2C2CCCCC2)CC1)c1ccc(F)cc1 | 37.1 µM | > 100 | 35.4 µM | 26.1 µM | 13.3 µM | 30.7 µM | 29 µM | 29.7 | 25.5 µM | 36 | 24.7 µM |  |  |  |  |  |  |  |  |
| O=C(CN1CCOCC1)c1ccc2c(c1)oc(=O)n2CCN1CCCCC1 | > 100 µM | > 100 | > 100 µM | > 100 µM | > 100 µM | > 100 µM | > 100 µM | > 100 | > 100 µM | > 100 | 56.2 µM |  |  |  |  |  |  |  |  |
| CC(=O)Oc1ccc(C2SCc3nc4ccccc4n32)cc1 (centres undefined) | > 100 µM | > 100 | > 100 µM | > 100 µM | 81.8 µM | > 63.8 µM | > 100 µM | > 100 | 77.3 µM | > 100 | 77.2 µM |  |  |  |  |  |  |  |  |
| CC(C)N=C(NC#N)NS(=O)(=O)c1cnccc1NC1CCCCCCC1 | > 100 µM | > 100 | > 100 µM | > 100 µM | > 100 µM | > 100 µM | > 100 µM | > 100 | > 100 µM | > 100 | > 100 µM |  |  |  |  |  |  |  |  |
| COC1=C2C[C@](OC)(C#CC=CC#CC2O)CC1(C)C (some centres undefined) | > 100 µM | > 100 | > 100 µM | > 100 µM | > 100 µM | > 100 µM | > 100 µM | > 100 | > 100 µM | > 100 | > 100 µM |  |  |  |  |  |  |  |  |
| C=CCOC1=C(OC(C)=O)C(C2COC(C)(C)O2)OC1=O (centres undefined) | 37.4 µM | 41.7 | 39.9 µM | 36 µM | 44.3 µM | > 100 µM | 35 µM | 32.4 | 46.3 µM | > 100 | > 100 µM |  |  |  |  |  |  |  |  |
| CCOC(=O)C1=CN(Cc2ccccc2)C2ON=C(c3ccc(Cl)cc3)C2C1 (centres undefined) | > 69.5 µM | > 100 | > 65.1 µM | > 61.9 µM | > 66.5 µM | > 68.9 µM | > 66.8 µM | > 68.7 | > 67.6 µM | > 100 | > 72.5 µM |  |  |  |  |  |  |  |  |
| C[C@H](N)C(=O)Nc1ccc(-c2nc3ccccc3s2)cc1Cl | 25.7 µM | 29.3 | 26.7 µM | 24.5 µM | 33.6 µM | 26.3 µM | 39.2 µM | 14.9 | 30.2 µM | 30.4 | 34.8 µM |  |  |  |  |  |  |  |  |
| CCOC(=O)CCNC(=O)c1cc(C)cc2c1Oc1c(cc(C)cc1C(=O)NCCC(=O)OCC)S2 | > 100 µM | > 100 | > 100 µM | > 100 µM | > 100 µM | > 100 µM | > 100 µM | > 100 | 58 µM | > 100 | 78.9 µM |  |  |  |  |  |  |  |  |
| COc1ccc(-c2c(C#N)c(N)n(C3OC(COC(C)=O)C(OC(C)=O)C(OC(C)=O)C3OC(C)=O)c(=S)c2C#N)cc1 (centres undefined) | > 100 µM and 75.5 µM | > 100 | > 100 µM | > 100 µM | > 100 µM | > 100 µM and 28.2 µM | > 100 µM | > 100 | 84.6 µM and 72.2 µM | > 100 | 63.4 µM and 50.9 µM | > 100 µM and 46.5 µM |  |  | 58.3 µM and 15 µM | > 100 µM and 38.4 µM |  |  | > 100 µM and 36.8 µM |
| COc1ccc(-c2nc3ccccc3c(=O)[nH]2)cc1OC | > 100 µM | > 100 | 53.2 µM | > 100 µM | > 100 µM | > 100 µM | > 100 µM | > 100 | 68.1 µM | 79 | 55.6 µM |  |  |  |  |  |  |  |  |
